Earlier results, collected in patent publication US20050003341A1, “Drug discovery assays based on the biology of atherosclerosis, cancer, and alopecia” (priority 2003, published 2005).
Where two headings read alike, the source gives them in different places.

Columns and labels:
ACE [1] = system: ACE
ACE [2] = settings: 5 or 10 mg/day vs placebo, 4 years
ACE [3] = system: ACE; remark: listed apart in the source
[4] = system: Moloney murine leukemia virus (MMuLV); Rous sarcoma virus (RSV); settings: chick embryo fibroblasts
TF [5] = settings: THP-1
TF [6] = settings: Western blotting; untreated smokers 2.3±0.7
leukocytes [7] = settings: 0.1 and 1 mM, similar in vitro assay
leukocytes [8] = settings: 5-20 mg/kg/day, oral
AR mRNA [9] = settings: LNCaP cells (Lin 2001)
TF [10] = settings: mononuclear leukocytes exposed to endotoxin
TF [11] = settings: cultured monocytes
ACE [12] = settings: zofenopril 0.05 or 1, captopril 5, enalapril 0.5 mg/kg/day
ACE [13] = settings: after 6 weeks
TF mRNA = settings: obese mice, 10 to 20 weeks of age
ACE [14] = settings: 5 mg/day vs placebo, 4 years
TF antigen = settings: starting on day 3, significant on day 28
papilla cells = settings: 14 days; testosterone 345 nM, DHT 345 mM as printed
AR mRNA [15] = settings: 50 μg/ml, 4 hours
CD40 = settings: concentration- and time-dependent

For `CCOC(=O)[C@H](CCc1ccccc1)N[C@@H](C)C(=O)N1[C@H](C(=O)O)C[C@@H]2CCC[C@@H]21` [ramipril], the “rate of death from cardiovascular causes” value (ACE [1]; 10 mg/day, 4.5 years, placebo 8.1%) is given as 6.1%, the “rate of cardiac arrest” value (ACE [1]; placebo 1.3%) is given as 0.8% and the rate of stroke (ACE [1]; placebo 4.9%) is given as 3.4%. The “rate of complications related to diabetes” value (ACE [1]; placebo 7.6%) was 6.4%, the “rate of heart failure” value (ACE [1]; placebo 11.6%) was 9.1% and the “rate of death from any cause” value (ACE [1]; placebo 12.2%) was 10.4%. The “rate of myocardial infarction” value (ACE [1]; placebo 12.3%) was 9.9%, the “rate of revascularization procedures” value (ACE [1]; placebo 18.8%) was 16.3% and the “RR, cardiac arrest” value (ACE [1]; vs placebo) was 0.62. The “RR, complications related to diabetes” value (ACE [1]; vs placebo) was 0.84, the “RR, death from any cause” value (ACE [1]; vs placebo) was 0.84 and the “RR, death from cardiovascular causes” value (ACE [1]; vs placebo) was 0.74. The “RR, heart failure” value (ACE [1]; vs placebo) was 0.77, the “RR, myocardial infarction” value (ACE [1]; vs placebo) was 0.80 and the “RR, revascularization procedures” value (ACE [1]; vs placebo) was 0.85. For the same molecule, the “RR, stroke” value (ACE [1]; vs placebo) was 0.68, the “changes in thickness of the common carotid artery wall, or carotid plaque height” value (ACE [2]) was “no significant difference” and the “progression slope of the mean maximum carotid intimal medial thickness (IMT)” value (ACE [3]; 10 mg/day, placebo 0.0217±0.0027, p=0.0033) was 0.0137±0.0024 mm/year. The “decrease in progression of carotid intima media thickness” value (ACE [3]; at 4.5 years) was 0.008 mm per year.

For `C/C=C/C/C=C/CCC(=O)[C@H]1O[C@H]1C(N)=O` [cerulenin], the “Rous sarcoma virus (RSV) production” value [4] is given as “inhibited”.

For `CC(=O)Oc1ccccc1C(=O)O` [aspirin, Acetylsalicylic Acid], the “LPS-induced translocation of c-Rel/p65” value (TF [5]) is given as “inhibited”, the “increase in TF concentration compared to non-smoker mice” value (TF [6]) is given as 1.3±0.17 fold and the “migration of human lymphocytes” value (leukocytes [7]) is given as “stimulated migration”. For the same molecule, the “increase in leukocyte migration relative to control values” (leukocytes [8]) was 20-70%.

For IL-6: interleukin 6, the ERK phosphorylation (ERK; LNCaP cells (Chen T 1999)) is given as “increased” and the “AR mRNA” value (AR mRNA [9]) is given as “decreased”.

For `C[C@H](CS)C(=O)N1CCC[C@H]1C(=O)O` [captopril], the “increase in TF mRNA” value (TF [10]) is listed as “inhibited”, the “TF antigen and mRNA” value (TF [11]) is listed as “decreased” and the “total lesion area compared to placebo” value (ACE [12]) is listed as “significantly decreased”. For the same molecule, the “cell size of macrophage derived foam cells” value (hamsters; controls 130±5) was “did not change”, the heart rate (hamsters; controls 376±6) was 348+6 beats/min and the “decrease in fatty streak area” value (hamsters; p=0.092 pravastatin, p=0.056 captopril) was 35%. For the same molecule, the “number of subendothelial macrophage derived foam cells” value (ACE [13]; week 4: 87±9, p<0.05) was 52±9 cell/mm^2, the “average size of a foam cell” value (ACE [13]; week 4: 113±8, p<0.05) was 89±5 μm^2 and the “area of fatty streak” value (ACE [13]; week 4: 125±18, p<0.05) was 55±12 μm2×1,000. The “area of extracellular lipid particles” value (ACE [13]; week 4: 144±27, not significant) was 157±36 μm2×1,000.

For `CCOC(=O)[C@H](CCc1ccccc1)N[C@H]1CS[C@H](c2cccs2)CN(CC(=O)O)C1=O` [temocapril], the “increase in TF mRNA” value (TF mRNA) is given as “attenuated”.

For `CCOC(=O)[C@H](CCc1ccccc1)N[C@@H](C)C(=O)N1CCC[C@H]1C(=O)O` [enalapril], the “total lesion area compared to placebo” value (ACE [12]) is listed as “no significant decrease” and the “changes in mean absolute diameter, minimum absolute diameter, percent diameter stenosis” value (ACE [14]) is listed as “no significant difference”.

In the case of `CCCCc1nc(Cl)c(CO)n1Cc1ccc(-c2ccccc2-c2nn[nH]n2)cc1` [losartan], the “effect on plasma TF antigen levels” value (TF antigen) is listed as “negative effect”.

In the case of `C[C@]12CC[C@H]3[C@@H](CCC4=CC(=O)CC[C@@]43C)[C@@H]1CC[C@@H]2O` [Testosterone, testosterone], the ERK phosphorylation (ERK; a variety of cells, cited studies) is listed as “increase” and the papilla cell proliferation (papilla cells) is listed as “significantly decreased”.

For `C[C@@H]1C[C@@H]([C@H](O)CC2CC(=O)NC(=O)C2)C(=O)[C@@H](C)C1` [cycloheximide], the “increase in AR mRNA” value (AR mRNA [15]) is listed as 1.7 ± 0.4 fold.

B1: CD40L: ligand of CD40, native or recombinant human (protein, UniProt P29965 113-261, looked up)
CD40 ligand, soluble form: MQKGDQNPQIAAHVISEASSKTTSVLQWAEKGYYTMSNNLVTLENGKQLTVKRQGLYYIYAQVTFCSNREASSQAPFIASLCLKSPGRFERILLRAANTHSSAKPCGQQSIHLGGVFELQPGASVFVNVTDPSQVSHGTGFTSFGLLKL
For B1, the “TF expression on the surface of cultured human vascular SMC” value (CD40) is listed as “transient increase”.
